US6492416B1, “4,5-diaryl-3(2H)-furanone derivatives as cyclooxygenase-2 inhibitors” (Pacific Corporation, priority 1999, dated 2002)

Tested on: male SD rat
Assay: Gastric safety studies (Ulcer Index)
Assay type: in vivo
Details: daily dose 30 mg/kg body weight oral for 7 days, mean of animals' scores
Method: Gastric safety for compounds of this invention was evaluated as follows [Otterness et al., Laboratory Models for Testing Nonsteroidal Anti-inflammatory Drugs in Nonsteroidal Anti-inflammatory Drugs; ed John Wiley & Sons pp 217-227 (1985); Wiley Interscience; New York]: A designated dose of a compound of this invention suspended in 1% methylcellulose solution was administered daily once for 7 days to a male SD rat by oral gavage. The animal was sacrificed and the inner wall of the stomach was examined visually 4 hours after the last administration (the 7th day administration). The gastric safety was assessed by the “Ulcer Index” as defined as the following scores: […]
Score 1: apparently normal stomach.
Score 2: one or more than one ulcer site of pin-point size only.
Score 3: erosions of 2 or fewer than 2, which may be accompanied by ulcers of pin-point size (an erosion is defied by any ulcerative lesion of any dimension greater than 1 mm).
Score 4: erosions more than 2, which may be accompanied by ulcers of pin-point size.
Score 5: erosions accompanied by hemorrhage.
In evaluating the gastric safety of a compound of this invention, usually 8 animals were used. The ulcer index for a compound was calculated by averaging of the ulcer index of each animal. The following Table 5 illustrates gastric safety of some COX-2 selective inhibitors of this invention.

## CC1(C)OC(c2ccc(S(C)(=O)=O)cc2)=C(c2cc(F)cc(F)c2)C1=O [Example 11, 4-(3,5-Difluorophenyl)-2,2-dimethyl-5-{4-(methylsulfonyl)phenyl}-3(2H)-furanone]
  Ulcer Index (1˜5): 1.8 ± 1.0

## CC1(C)OC(c2ccc(S(C)(=O)=O)cc2)=C(c2cccc(F)c2)C1=O [Example 4, 2,2-Dimethyl-4-(3-fluorophenyl)-5-{4-(methylsulfonyl)phenyl}-3(2H)-furanone]
  Ulcer Index (1˜5): 1.8 ± 0.7
